Source: the NIST ThermoML archive (doi:10.1021/je0602925)
± gives the expanded uncertainty stated by the source.

Assay: activity coefficient (dimensionless); of the first substance listed, at infinite dilution; xn = mol fraction of the nth substance listed
Details: Liquid, Chromatography, x1 = 0

## CCCCC [pentane] + CCCCCCCCCCCCCC[P+](CCCCCC)(CCCCCC)CCCCCC.[Cl-]
308.15 K
  activity coefficient: 0.607 ± 0.042
318.15 K
  activity coefficient: 0.599 ± 0.042
328.15 K
  activity coefficient: 0.594 ± 0.042
